The test system of test [1] is human colon cancer cell line HCT-116. Description: Cytotoxicity, MTS assay.
Test [2] relates to Staphylococcus aureus (ATCC29213). Description: Antibacterial activity, broth dilution method (Mueller–Hinton broth), MIC.
The subject of test [3] is Methicillin-resistant staphylococcus aureus (R3708). The test is described as above.
Test [4] has as its system Escherichia coli (ATCC25922). Described as above.
The subject of test [5] is Staphylococcus aureus (ATCC29213), Methicillin-resistant staphylococcus aureus (R3708) and Escherichia coli (ATCC25922). Description: Antibacterial activity against three multidrug-resistant bacteria, broth dilution (summary statements).
Test [6] has as its system human embryonic kidney (HEK) 293 cell line. Description: Cytotoxicity, MTS assay.
Setting [7] is: ATCC25922|ATCC29213, read-out: MIC values ranging over the three bacteria.

This passage reports IC50 and MIC results from PMC4245550, “Exploring the Chemodiversity and Biological Activities of the Secondary Metabolites from the Marine Fungus Neosartorya pseudofischeri” (Marine Drugs, 2014).

Values after ≈ are worked out from the molar mass of the structure shown. Read-outs that look alike come from different tables or passages of the source.

In test [1] (Homo sapiens, HCT-116, 72 h), `O=c1[nH]cc(F)c(=O)[nH]1` [5-Fluorouracil, reference compound] had an IC50 of 2.04 ± 0.22 µM.
Take `CC1(C)S[C@@H]2[C@H](NC(=O)[C@H](N)c3ccccc3)C(=O)N2[C@H]1C(=O)O` [Ampicillin sodium, reference compound]: the results for the MIC in test [2], in test [3] and in test [4] were 8.07 µM, 129 µM and 6.73 µM, respectively.
Compound `COC1(CO)C(=O)n2c(cc3ccccc32)C(=O)N1C` (stereo not drawn) [Compound 2, 1,2,3,4-tetrahydro-3-methoxyl-3-hydroxylmethyl-2-methyl-1,4-dioxopyrazino[1,2-a]indole] returned an MIC in test [5] of over 256 mg/L.
The same measure, in the same setting: as for `CC1C(=O)n2c(cc3ccccc32)C(=O)N1C` (stereo not drawn) [Compound 3, 1,2,3,4-tetrahydro-2,3-dimethyl-1,4-dioxopyrazino[1,2-a]indole], the figure is over 256 mg/L.
Regarding `C=c1c(=O)n2c(cc3ccccc32)c(=O)n1C` [Compound 4, 1,2,3,4-tetrahydro-2-methyl-3-methylene-1,4-dioxopyrazino[1,2-a]indole], the MIC in test [2] is 283 µM (≈ 64 µg/mL); in test [3], 70.7 µM (≈ 16 µg/mL); in test [4], over 1130 µM. In addition, the IC50 in test [6] (Homo sapiens, HEK293, 72 h) turned out to be 30.1 ± 0.9 µM; in test [1] (Homo sapiens, HCT-116, 72 h), 10.3 ± 1.41 µM.
Consider `CN1C(=O)C(=O)n2c(cc3ccccc32)C1=O` [Compound 5, 1,2,3,4-tetrahydro-2-methyl-1,3,4-trioxopyrazino[1,2-a]indole], for which the MIC in test [5] is over 256 mg/L. The IC50 in test [6] (Homo sapiens, HEK293, 72 h) was over 50 µM; in test [1] (Homo sapiens, HCT-116, 72 h), over 50 µM.
In turn, `CNC(=O)c1cc2ccccc2[nH]1` [Compound 6, N-methyl-1H-indole-2-carboxamide] gave an MIC in test [5] of over 256 mg/L.
For `CN1C(=O)[C@]23CC4=CC=C[C@H](O)[C@H]4N2C(=O)[C@@]1(CO)SS3` [Compound 7, gliotoxin], the MIC in test [5] (setting [7]) is 1.52 to 97.6 µM; in test [2] it was 12.2 µM (≈ 3.98 µg/mL); in test [3] it was 1.53 µM (≈ 0.499 µg/mL); in test [4] it was 24.5 µM (≈ 8.01 µg/mL). The IC50 in test [6] (Homo sapiens, HEK293, 72 h) is 1.58 ± 0.03 µM; in test [1] (Homo sapiens, HCT-116, 72 h), 1.24 ± 0.38 µM.
`CC(=O)OC1C=CC=C2CC34SSC(CO)(C(=O)N3C21)N(C)C4=O` (stereo not drawn) [Compound 8, acetylgliotoxin]: the MIC was 86.9 µM (≈ 32 µg/mL) in test [2], 21.7 µM (≈ 8.01 µg/mL) in test [3] and over 696 µM in test [4]. The IC50 in test [6] (Homo sapiens, HEK293, 72 h) was determined as 4.49 ± 0.24 µM; in test [1] (Homo sapiens, HCT-116, 72 h), 0.89 ± 0.04 µM.
`CN1C(=O)C2(S)CC3=CC=CC(O)C3N2C(=O)C1(S)CO` (stereo not drawn) [Compound 9, reduced gliotoxin]: the MIC is 1.52 to 97.6 µM in test [5] (setting [7]), 48.8 µM (≈ 16 µg/mL) in test [2], 1.52 µM (≈ 0.499 µg/mL) in test [3] and 97.6 µM (≈ 32 µg/mL) in test [4]. The IC50 stood at 1.26 ± 0.04 µM in test [6] (Homo sapiens, HEK293, 72 h) and 0.43 ± 0.04 µM in test [1] (Homo sapiens, HCT-116, 72 h).
Take `CSC1(CO)C(=O)N2C3C(=CC=CC3OC(C)=O)CC2(SC)C(=O)N1C` (stereo not drawn) [Compound 10, 6-acetylbis(methylthio)gliotoxin]: in test [5], the MIC is over 256 mg/L. Further, the IC50 in test [6] (Homo sapiens, HEK293, 72 h) was over 50 µM; in test [1] (Homo sapiens, HCT-116, 72 h) it was over 50 µM.
Turning to `CSC1(CO)C(=O)N2c3ccccc3CC2(SC)C(=O)N1C` (stereo not drawn) [Compound 12, didehydrobisdethiobis(methylthio)gliotoxin], in test [5], the MIC was over 256 mg/L. The IC50 is over 50 µM in test [6] (Homo sapiens, HEK293, 72 h) and over 50 µM in test [1] (Homo sapiens, HCT-116, 72 h).
In the case of `CSC1(CO)NC(=O)C(Cc2ccccc2)(SC)NC1=O` (stereo not drawn) [Compound 13, bis-N-norgliovictin], the MIC in test [5] is over 256 mg/L. The IC50 in test [6] (Homo sapiens, HEK293, 72 h) was over 50 µM; in test [1] (Homo sapiens, HCT-116, 72 h), over 50 µM.
In the case of `CN[C@H](CC(C)C)C(=O)N[C@H]1C(=O)N[C@@H](CC(N)=O)C(=O)N[C@H]2C(=O)N[C@H]3C(=O)N[C@H](C(=O)N[C@H](C(=O)O)c4cc(O)cc(O)c4-c4cc3ccc4O)[C@H](O)c3ccc(c(Cl)c3)Oc3cc2cc(c3O[C@@H]2O[C@H](CO)[C@@H](O)[C@H](O)[C@H]2O[C@H]2C[C@](C)(N)[C@H](O)[C@H](C)O2)Oc2ccc(cc2Cl)[C@H]1O` [Vancomycin, reference compound], the MIC in test [2] came to 0.84 µM (≈ 1.22 µg/mL); in test [3], 2.01 µM (≈ 2.91 µg/mL).
For the compound “bisdethiobis(methylthio)gliotoxin [Compound 11]”, the 50% inhibitory concentration (IC50) is 16.4 ± 0.38 µM in test [6] (293 cells, 72 h, MTS, n = 5) and 8.59 ± 0.96 µM in test [1] (HCT-116 cells, 72 h, MTS, n = 5).
